# From ChEMBL document CHEMBL4014354, “2'-Chloro,2'-fluoro Ribonucleotide Prodrugs with Potent Pan-genotypic Activity against Hepatitis C Virus Replication in Culture” (J Med Chem, 2017)
# Assays:
# [1] = test system: HepG2; assay: Mitochondrial toxicity in human HepG2 cells assessed as lactic acid production at 10 uM measured on day 14 by spectrophotometric method relative to control; format: cell-based; conditions: hepg2, 10 µM
# [2] = test system: nuclear DNA levels; assay: Cytotoxicity against human HepG2 cells assessed as inhibition of nuclear DNA levels at 50 uM measured on day 14 by RT-PCR method relative to nuclear beta-actin DNA levels; format: cell-based; conditions: read-out: INH
# [3] = test system: Hepatitis C virus; assay: Antiviral activity against HCV genotype 1a infected in human HuH7 cells assessed as inhibition of viral RNA replication after 96 hrs by RT-PCR method; format: functional, cell-based, Hepacivirus hominis; conditions: subtype 1a, Huh-7, 96 h
# [4] = test system: HepG2; assay: Cytotoxicity against human HepG2 cells assessed as inhibition of nuclear DNA levels measured on day 14 by RT-PCR method; conditions: HepG2, 336 h
# [5] = test system: Hepatitis C virus; assay: Antiviral activity against HCV genotype 1b infected in human HuH7 cells assessed as inhibition of viral RNA replication after 96 hrs by RT-PCR method; format: functional, cell-based, Hepacivirus hominis; conditions: Huh-7, 96 h
# [6] = molecular target: Cytochrome P450 3A4 (Homo sapiens, UniProt P08684); assay: Inhibition of human CYP3A4 using ketoconazole […]; format: ADME
# Cytochrome P450 3A4, sequence (P08684 whole entry): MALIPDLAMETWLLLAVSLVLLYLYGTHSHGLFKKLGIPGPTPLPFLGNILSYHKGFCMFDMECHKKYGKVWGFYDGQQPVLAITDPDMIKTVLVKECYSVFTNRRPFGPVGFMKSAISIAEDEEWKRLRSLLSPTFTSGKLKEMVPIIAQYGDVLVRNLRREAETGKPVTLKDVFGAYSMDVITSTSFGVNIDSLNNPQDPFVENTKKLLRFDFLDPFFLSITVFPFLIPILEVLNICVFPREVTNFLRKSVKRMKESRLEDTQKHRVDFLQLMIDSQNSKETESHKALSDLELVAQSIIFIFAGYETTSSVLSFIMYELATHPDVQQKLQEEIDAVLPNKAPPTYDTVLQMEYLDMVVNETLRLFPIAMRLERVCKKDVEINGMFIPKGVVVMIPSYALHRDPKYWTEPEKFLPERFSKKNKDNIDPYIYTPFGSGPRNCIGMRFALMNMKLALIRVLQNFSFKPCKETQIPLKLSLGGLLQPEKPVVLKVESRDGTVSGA
# [7] = test system: cytochrome c oxidase subunit 2 DNA (mitochondrial DNA) levels; assay: Mitochondrial toxicity in human HepG2 cells assessed as inhibition of cytochrome c oxidase subunit 2 DNA levels measured on day 14 by RT-PCR method; format: cell-based
# [8] = in vitro; conditions: human, liver microsomes
# Description: Half life in human liver microsomes at 1 uM by LC-MS/MS analysis
# [9] = test system: cytochrome c oxidase subunit 2 DNA (mitochondrial DNA) levels; assay: Mitochondrial toxicity in human HepG2 cells assessed as inhibition of cytochrome c oxidase subunit 2 DNA levels at 50 uM measured on day 14 by RT-PCR method relative to nuclear beta-actin DNA levels; format: cell-based
# [10] = test system: HepG2; assay: Mitochondrial toxicity in human HepG2 cells assessed as cytochrome c oxidase subunit 2 DNA levels at 10 uM measured on day 14 by RT-PCR method relative to nuclear beta-actin DNA levels; conditions: hepg2, 10 µM
# [11] = Cytotoxicity against human HuH7 cells assessed as inhibition of cell proliferation after 4 days by MTS assay; format: cell-based, Huh-7
# [12] = Cytotoxicity against human primary BMNC cells up to 50 uM measured on day 14; format: cell-based
# [13] = test system: nuclear DNA levels; assay: in vitro; conditions: human, HepG2 cells
# [14] = test system: Hepatitis C virus; assay: Antiviral activity against HCV genotype 4 infected in human HuH7 cells assessed as inhibition of viral RNA replication after 96 hrs by RT-PCR method; format: functional, cell-based, Hepacivirus hominis; conditions: genotype 4, Huh-7, 96 h
# [15] = Prodrug conversion in human primary hepatocytes assessed as increase in nucleoside 5' triphosphate levels at 50 uM after 4 hrs by LC-MS/MS analysis relative to sofosbuvir; format: ADME, cell-based, Hepatocyte
# [16] = Half life in human intestinal microsomes; format: ADME, Intestine, Microsome
# [17] = Metabolic stability in human intestinal microsomes assessed as compound remaining after 60 mins; format: ADME, Intestine, Microsome; conditions: read-out: Stability
# [18] = Clearance in human intestinal microsomes; format: ADME, Intestine, Microsome
# [19] = in vitro; conditions: human, liver microsomes; remark: listed apart in the source
# Description: Metabolic stability in human liver microsomes assessed as parent compound remaining at 1 uM at 60 mins by LC-MS/MS analysis
# [20] = test system: Hepatitis C virus; assay: Antiviral activity against HCV genotype 3a infected in human HuH7 cells assessed as inhibition of viral RNA replication after 96 hrs by RT-PCR method; format: functional, cell-based, Hepacivirus hominis; conditions: Huh-7, 96 h
# [21] = test system: Hepatitis C virus; assay: Selectivity ratio of EC50 for HCV genotype 1b harboring NS5B S282T mutant to EC50 for HCV genotype 1b harboring wild type NS5B; format: functional, Hepacivirus hominis
# [22] = test system: HepG2; assay: Mitochondrial toxicity in human HepG2 cells assessed as lactic acid production at 50 uM measured on day 14 by spectrophotometric method relative to control; format: cell-based; conditions: hepg2, 50 µM
# [23] = Cytotoxicity against African green monkey Vero cells assessed as inhibition of cell proliferation after 3 days by MTT assay; format: cell-based; conditions: chlorocebus sabaeus
# [24] = test system: HepG2; assay: Mitochondrial toxicity in human HepG2 cells assessed as cytochrome c oxidase subunit 2 DNA levels at 50 uM measured on day 14 by RT-PCR method relative to nuclear beta-actin DNA levels; format: cell-based; conditions: hepg2, 50 µM
# [25] = test system: cytochrome c oxidase subunit 2 DNA (mitochondrial DNA) levels; assay: in vitro; conditions: human, HepG2 cells
# [26] = Cytotoxicity against human CEM cells assessed as inhibition of cell proliferation after 4 days by MTT assay; format: cell-based, CCRF-CEM
# [27] = Prodrug conversion in human HuH7 cells assessed as increase in nucleoside 5' triphosphate levels at 50 uM after 4 hrs by LC-MS/MS analysis relative to sofosbuvir; format: ADME, cell-based; conditions: huh-7, 4 h
# [28] = test system: Hepatitis C virus; assay: Selectivity ratio of EC90 for HCV genotype 1b harboring NS5B S282T mutant to EC90 for HCV genotype 1b harboring wild type NS5B; format: functional, Hepacivirus hominis
# [29] = molecular target: T1, Cytochrome P450 1A2 (Homo sapiens, UniProt P05177); assay: Inhibition of human CYP1A2 using alpha-naphthoflavone […]; format: ADME
# T1 sequence (P05177 whole entry): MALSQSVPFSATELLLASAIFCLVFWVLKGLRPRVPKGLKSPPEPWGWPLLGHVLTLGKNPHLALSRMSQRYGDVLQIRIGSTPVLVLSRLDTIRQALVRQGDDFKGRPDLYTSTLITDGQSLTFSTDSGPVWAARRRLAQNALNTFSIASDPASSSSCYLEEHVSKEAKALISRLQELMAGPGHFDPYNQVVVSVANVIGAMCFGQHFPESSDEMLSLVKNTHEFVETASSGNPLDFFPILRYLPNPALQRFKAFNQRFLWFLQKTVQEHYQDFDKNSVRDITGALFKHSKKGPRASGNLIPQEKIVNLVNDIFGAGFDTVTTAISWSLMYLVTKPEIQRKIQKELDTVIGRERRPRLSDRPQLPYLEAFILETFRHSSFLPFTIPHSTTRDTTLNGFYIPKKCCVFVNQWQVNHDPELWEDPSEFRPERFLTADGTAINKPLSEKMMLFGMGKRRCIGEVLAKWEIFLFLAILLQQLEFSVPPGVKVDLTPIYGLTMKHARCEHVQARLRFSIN
# [30] = molecular target: Cytochrome P450 2C9 (Homo sapiens, UniProt P11712); assay: Inhibition of human CYP2C9 using sulfaphenazole […]; format: ADME
# Cytochrome P450 2C9, sequence (P11712 whole entry): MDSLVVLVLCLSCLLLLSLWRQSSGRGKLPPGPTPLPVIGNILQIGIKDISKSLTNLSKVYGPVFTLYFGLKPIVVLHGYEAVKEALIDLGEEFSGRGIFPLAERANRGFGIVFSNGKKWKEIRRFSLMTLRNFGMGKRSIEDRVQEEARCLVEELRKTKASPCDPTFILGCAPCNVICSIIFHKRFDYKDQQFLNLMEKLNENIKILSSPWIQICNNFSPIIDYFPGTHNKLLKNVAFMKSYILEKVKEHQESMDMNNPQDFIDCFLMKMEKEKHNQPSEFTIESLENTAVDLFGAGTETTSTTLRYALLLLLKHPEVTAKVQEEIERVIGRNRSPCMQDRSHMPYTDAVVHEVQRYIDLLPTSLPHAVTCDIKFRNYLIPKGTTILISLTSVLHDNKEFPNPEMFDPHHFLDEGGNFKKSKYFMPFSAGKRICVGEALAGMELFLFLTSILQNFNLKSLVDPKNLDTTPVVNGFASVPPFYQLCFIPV
# [31] = molecular target: Cytochrome P450 2D6 (Homo sapiens, UniProt P10635); assay: Inhibition of human CYP2D6 using quinidine […]; format: ADME
# Cytochrome P450 2D6, sequence (P10635 whole entry): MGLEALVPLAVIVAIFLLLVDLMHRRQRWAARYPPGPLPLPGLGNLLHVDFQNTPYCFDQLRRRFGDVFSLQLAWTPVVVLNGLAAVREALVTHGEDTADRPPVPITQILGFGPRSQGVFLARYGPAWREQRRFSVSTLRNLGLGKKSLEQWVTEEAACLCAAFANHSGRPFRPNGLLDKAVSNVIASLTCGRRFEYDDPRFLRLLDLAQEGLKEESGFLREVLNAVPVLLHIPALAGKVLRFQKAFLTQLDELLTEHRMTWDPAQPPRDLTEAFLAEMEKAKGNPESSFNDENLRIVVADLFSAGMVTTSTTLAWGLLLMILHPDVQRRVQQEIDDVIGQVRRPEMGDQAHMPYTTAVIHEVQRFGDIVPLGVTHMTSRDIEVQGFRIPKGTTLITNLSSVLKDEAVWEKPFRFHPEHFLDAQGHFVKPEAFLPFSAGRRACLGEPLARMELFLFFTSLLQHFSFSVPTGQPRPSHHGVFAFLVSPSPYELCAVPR
# [32] = Cytotoxicity against human PBMC assessed as inhibition of cell proliferation after 5 days by MTT assay; format: cell-based
# [33] = in vitro; conditions: human, liver microsomes; remark: listed apart in the source
# Description: Clearance in human liver microsomes at 1 uM by LC-MS/MS analysis
# [34] = test system: Hepatitis C virus; assay: Antiviral activity against HCV genotype 1b harboring NS5B S282T mutant infected in human HuH7 cells assessed as inhibition of viral RNA replication after 4 days by luciferase reporter gene assay; format: functional, cell-based, Hepacivirus hominis; conditions: Huh-7, 96 h
# [35] = test system: Hepatitis C virus; assay: Antiviral activity against HCV genotype 2a/k infected in human HuH7 cells assessed as inhibition of viral RNA replication after 96 hrs by RT-PCR method; format: functional, cell-based, Hepacivirus hominis; conditions: Huh-7, 96 h
# [36] = test system: Hepatitis C virus; assay: Antiviral activity against HCV genotype 1b harboring wild type NS5B infected in human HuH7 cells assessed as inhibition of viral RNA replication after 5 days by RT-PCR method; format: functional, cell-based, Hepacivirus hominis; conditions: Huh-7, 120 h
# [37] = test system: Hepatitis C virus; assay: Antiviral activity against HCV genotype 2b infected in human HuH7 cells assessed as inhibition of viral RNA replication after 96 hrs by RT-PCR method; format: functional, cell-based, Hepacivirus hominis; conditions: Huh-7, 96 h
# [38] = Metabolic stability in human blood assessed as compound remaining at 2 uM after 2 hrs by LC-MS/MS method; format: ADME, tissue-based; conditions: read-out: Stability
compound,measurement,setting,value
CC(C)OC(=O)[C@H](C)NP(=O)(OC[C@H]1O[C@@H](n2ccc(=O)[nH]c2=O)[C@@](F)(Cl)[C@@H]1O)Oc1ccccc1 (mixture of isomers),Activity,[1],60%
same,"cytotoxicity at 14 days, 50 µM",[2],13%
same,IC50,[3],130 nM
same,IC50,[4],> 50000 nM
same,IC50,[5],150 nM
same,IC50,[6],6800 nM
same,IC50 at 14 days,[7],> 50000 nM
same,half-life at 1 µM,[8],0.193 h
same,"inhibition at 14 days, 50 µM",[9],27%
same,Activity,[10],130%
same,CC50 at 96 h,[11],> 10000 nM
same,Activity,[12],Non-Toxic
same,"cytotoxicity at 14 days, 10 µM",[13],< 1%
same,IC50,[14],170 nM
same,fold change (FC),[15],2.3
same,half-life,[16],2 h
same,remaining at 1 h,[17],79%
same,microsomal CLint,[18],29 µL/min/mg
same,"remaining at 1 h, 1 µM",[19],4.2%
same,IC50,[20],150 nM
same,Ratio EC50,[21],3.5
same,Activity,[22],56%
same,CC50 at 72 h,[23],> 100000 nM
same,Activity,[24],84%
same,"inhibition at 14 days, 10 µM",[25],< 1%
same,CC50 at 96 h,[26],> 100000 nM
same,fold change (FC),[27],2.7
same,Selectivity ratio,[28],2.9
same,IC50,[29],> 100000 nM
same,IC50,[30],25000 nM
same,IC50,[31],> 100000 nM
same,CC50 at 120 h,[32],> 100000 nM
same,microsomal CLint at 1 µM,[33],120 µL/min/mg
same,EC50,[34],70 nM
same,EC90,[34],200 nM
same,IC50,[35],50 nM
same,EC50,[36],20 to 200 nM
same,EC90,[36],70 to 400 nM
same,IC50,[37],90 nM
same,"remaining at 2 h, 2 µM",[38],103%
